Numbered stars: 1 amine (or outer) side, 2 acyl side, 3 side chain; on linkers, the order of the positions; unused ones are H or OH. Bridge positions count the residues as written; N and C are the ends. Side chains are listed from the residue outwards. Peptide text beside a SMILES is read from it. * marks the point of attachment. γGlu = O=C(O)[C@H](CCC(=O)[*:2])N[*:1]; Palmitoyl = CCCCCCCCCCCCCCCC(=O)*
Experiments:
Amylin receptor = biological target: T1, Amylin receptor (Rattus norvegicus, UniProt P32214); experiment: Amylin receptor binding assay (125I-rat amylin, RNA membranes); conditions: Table 8
T1 construct: from tissue; read as rat nucleus accumbens membranes
T1 sequence (P32214 25-516): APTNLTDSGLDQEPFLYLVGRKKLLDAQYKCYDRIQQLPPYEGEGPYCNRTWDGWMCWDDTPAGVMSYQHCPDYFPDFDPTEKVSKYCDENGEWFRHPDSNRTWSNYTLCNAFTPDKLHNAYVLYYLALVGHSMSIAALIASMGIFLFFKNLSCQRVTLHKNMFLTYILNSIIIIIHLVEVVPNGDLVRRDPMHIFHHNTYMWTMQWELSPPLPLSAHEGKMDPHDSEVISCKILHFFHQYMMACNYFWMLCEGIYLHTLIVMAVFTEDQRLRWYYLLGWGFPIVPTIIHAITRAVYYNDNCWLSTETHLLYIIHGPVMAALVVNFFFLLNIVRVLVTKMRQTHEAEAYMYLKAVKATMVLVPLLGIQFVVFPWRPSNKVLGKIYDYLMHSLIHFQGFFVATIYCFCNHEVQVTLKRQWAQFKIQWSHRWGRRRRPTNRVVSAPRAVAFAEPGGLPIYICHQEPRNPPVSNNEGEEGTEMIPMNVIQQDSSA
T1 sequence (Q9JJ74 27-148 partner): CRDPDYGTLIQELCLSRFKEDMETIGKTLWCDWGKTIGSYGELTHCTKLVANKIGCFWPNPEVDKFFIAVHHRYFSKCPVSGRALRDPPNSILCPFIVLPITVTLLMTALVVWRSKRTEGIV
Experimental: (§1) Amylin receptor binding assay. RNA membranes can be incubated with approximately 20 μM (final concentration) of ^125I-rat amylin (Bolton-Hunter labeled, PerkinElmer, Waltham, Mass.) and increasing concentrations of test compound for 1 hour at ambient temperature in, for example, 96-well polystyrene plates. […] Dried glass fiber plates can be combined with scintillant and counted on a multi-well Perkin Elmer scintillation counter.
(§2) A variety of receptor binding and functional activity assays were conducted using the peptide conjugates described herein. Receptor binding activity can be expressed, for example in Table 6, as an IC50 value, calculated from the raw data using an iterative curve-fitting program using a 4-parameter logistic equation (PRISM®, GraphPAD Software, La Jolla, Calif.), as known in the art.
as §1, with “For the amylin” for “Amylin”, “assay,” for “assay.”, “were” for “can be”, “in” for “in, for example,”, “counter, as well known in the art.” for “counter.”

Calcitonin receptor = biological target: T2, Calcitonin receptor (Rattus norvegicus, UniProt P32214); experiment: Calcitonin receptor binding assay (125I-human calcitonin, C1a-HEK cell membranes); conditions: Table 8
T2 construct: expressed in transfected cells; host or cells: C1a-HEK cells (HEK cells stably expressing the receptor), membranes
T2 sequence (P32214 25-479 isoform P32214-2 limits assumed): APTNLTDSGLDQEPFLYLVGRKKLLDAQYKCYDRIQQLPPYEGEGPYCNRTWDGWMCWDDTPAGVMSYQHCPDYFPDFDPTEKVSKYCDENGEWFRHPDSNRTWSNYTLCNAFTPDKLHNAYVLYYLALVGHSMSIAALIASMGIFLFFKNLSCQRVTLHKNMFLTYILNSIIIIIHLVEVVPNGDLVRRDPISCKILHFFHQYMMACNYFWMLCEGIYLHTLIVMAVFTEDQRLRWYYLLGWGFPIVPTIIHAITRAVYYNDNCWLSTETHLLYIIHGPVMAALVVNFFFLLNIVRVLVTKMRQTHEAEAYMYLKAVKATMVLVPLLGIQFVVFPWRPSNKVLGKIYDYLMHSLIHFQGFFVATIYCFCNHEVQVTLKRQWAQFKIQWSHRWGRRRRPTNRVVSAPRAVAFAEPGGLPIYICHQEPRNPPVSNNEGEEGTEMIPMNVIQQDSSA
Experimental: as §1, with “Calcitonin” for “Amylin”, “C1a-HEK cell” for “RNA”, “[…]” for “20”, “^125I-human calcitonin (PerkinElmer,” for “^125I-rat amylin (Bolton-Hunter labeled, PerkinElmer,”, “multiwell” for “multi-well”
as §2
For the calcitonin receptor binding assay, C1a-HEK cell membranes were incubated with approximately […] (final concentration) of ^125I-human calcitonin (PerkinElmer, Waltham, Mass.) and increasing concentrations of test compound for 1 hour at ambient temperature in 96-well polystyrene plates. […] Dried glass fiber plates were combined with scintillant and counted on a multiwell Perkin Elmer scintillation counter.

mice = experiment: Forced swim test (FST); format: in vivo, mouse; conditions: qualitative result; 0.03 mg/kg dosing, as in Example 8
Description: The forced swim test (FST) is a commonly used paradigm to evaluate antidepressant activity of drugs. The FST is based on measurement of the animal's floating time in a tank filled with water. When rats or mice are forced to swim in a deep cylinder with tepid water they become nearly immobile and cease trying to escape. Without wishing to be bound by any theory, it is believe that this characteristic immobile posture reflects a depressive-like state which is readily influenced by a wide variety of antidepressants. See, e.g., Hedou et al., 2001, Pharmacol, Biochem. Behay. 70:65-76; Chaki et al., 2003, J. Pharmacol. Exp. Ther. 304:818-826; Porsolt et al., 1977, Nature 266:730-732. Antidepressants decrease the immobility time in the FST. Vehicle or test compound can be delivered continuously for two weeks to mice by subcutaneously implanted osmotic pumps prior to the FST. Indeed, any route of administration (e.g., intraperitoneal, subcutaneous, oral and the like) is available. Mice can be placed in the water tank for assessment of climbing, swimming, and immobility over a defined trial session, typically 6 minutes. Test session parameters for mice and rats are typically different, as known in the art.
The forced swim test (FST) is a commonly used paradigm to evaluate antidepressant activity of drugs. […] Specifically, vehicle or test compound was delivered continuously for two weeks to mice by subcutaneously implanted osmotic pumps prior to the FST assay, by methods well known in the art. On day one, the patients were introduced into the tank for a 15 minute pre-swim session. On day two, the patients were placed back into the water tank for assessment of climbing, swimming, and immobility over a 6 minute trial session. The rate of compound infusion was 0.03 mg/kg/day.

[1] = system: male Harlan Sprague-Dawley rats; experiment: Stress-induced hyperthermia (SIH) assay; format: in vivo, rat; conditions: 0.1 mg/kg IP, 18 hr pretreatment
Description: Stress-induced hyperthermia (SIH). Body temperature and emotional state are closely related in humans. Without wishing to be bound by any theory, it is believed that stress-induced hyperthermia (SIH) in rodents has predictive validity for certain human anxiety/stress disorders. The SIH assay assesses the effect of test agents (e.g, anxiolytics) on core body temperature following restraint stress. See, for example, Zethof et al., 1994, Physiol. Behay. 55:109-115. Anxiolytics typically blunt the increase in body temperature, or hyperthermic response, following stress exposure. […] Test animals can then be patiented to two sequential rectal temperature measurements at a measured time interval (e.g, 30 min). The difference between the second temperature reading and the first temperature reading (ΔT) is the stress-induced hyperthermic response.
As described above, it is believed that stress-induced hyperthermia (SIH) in rodents (e.g., rats) has predictive validity for certain human anxiety/stress disorders. […] Temperature readings were obtained remotely at the time of injection and at t=0 and t=30 minutes. The SIH response was defined as the change from t=30 back to t=0 minutes, while effects on basal temperature were calculated as the change from t=0 back to the time of injection.

IC50 (Amylin receptor) [nM]	IC50 (Calcitonin receptor) [nM]	Structure (SMILES)	FST Assay, 0.03 mg/kg (mice)	SIH response [1]
0.028	0.095	CC(C)C[C@H](NC(=O)[C@H](C)NC(=O)[C@@H]1CSSC[C@H](NC(=O)[C@@H](N)CCCCN)C(=O)N[C@@H](CC(N)=O)C(=O)N[C@@H]([C@@H](C)O)C(=O)N[C@@H](C)C(=O)N[C@@H]([C@@H](C)O)C(=O)N1)C(=O)N[C@@H](CCC(N)=O)C(=O)N[C@@H](CCCNC(=N)N)C(=O)N[C@@H](CC(C)C)C(=O)N[C@@H](C)C(=O)N[C@@H](CCC(N)=O)C(=O)N[C@@H](CCC(=O)O)C(=O)N[C@@H](CC(C)C)C(=O)N[C@@H](Cc1c[nH]cn1)C(=O)N[C@@H](CCCNC(=N)N)C(=O)N[C@@H](CC(C)C)C(=O)N[C@@H](CCC(N)=O)C(=O)N[C@H](C(=O)N[C@@H](Cc1ccc(O)cc1)C(=O)N1CCC[C@H]1C(=O)N[C@@H](CCCNC(=N)N)C(=O)N[C@H](C(=O)N[C@@H](CC(N)=O)C(=O)N[C@H](C(=O)NCC(=O)N[C@@H](CO)C(=O)N[C@@H](CC(N)=O)C(=O)N[C@H](C(=O)N[C@@H](Cc1ccc(O)cc1)C(N)=O)[C@@H](C)O)C(C)C)[C@@H](C)O)[C@@H](C)O [Cmpd 17] (H-KCNTATCALQRLAQELHRLQTYPRTNVGSNTY-NH2; disulfide 2-7; N-terminus assumed)	Inactive	
		CCCCCCCCCCCCCCCC(=O)N[C@@H](CCC(=O)NCCCC[C@H](NC(=O)[C@@H](NC(=O)[C@H](CCCNC(=N)N)NC(=O)[C@@H]1CCCN1C(=O)[C@H](Cc1ccc(O)cc1)NC(=O)[C@@H](NC(=O)[C@H](CCC(N)=O)NC(=O)[C@H](CC(C)C)NC(=O)[C@H](CCCNC(=N)N)NC(=O)[C@H](Cc1c[nH]cn1)NC(=O)[C@H](CC(C)C)NC(=O)[C@H](CCC(=O)O)NC(=O)[C@H](CCC(N)=O)NC(=O)[C@H](C)NC(=O)[C@H](CC(C)C)NC(=O)[C@H](CCCNC(=N)N)NC(=O)[C@H](CCC(N)=O)NC(=O)[C@H](CC(C)C)NC(=O)[C@H](C)NC(=O)[C@@H]1CSSC[C@H](NC(=O)[C@@H](N)CCCCN)C(=O)N[C@@H](CC(N)=O)C(=O)N[C@@H]([C@@H](C)O)C(=O)N[C@@H](C)C(=O)N[C@@H]([C@@H](C)O)C(=O)N1)[C@@H](C)O)[C@@H](C)O)C(=O)N[C@H](C(=O)NCC(=O)N[C@@H](CO)C(=O)N[C@@H](CC(N)=O)C(=O)N[C@H](C(=O)N[C@@H](Cc1ccc(O)cc1)C(N)=O)[C@@H](C)O)C(C)C)C(=O)O [Cmpd 189, [K^26ε-(γ-Glu(Nα-C16-Chain))]-Cmpd 17] (H-KCNTATCALQRLAQELHRLQTYPRTK([γGlu-Palmitoyl])VGSNTY-NH2; disulfide 2-7 (inferred); N-terminus assumed)	Active	statistically insignificant reduction in SIH

Source: patent publication US20140249076A1, “AMYLIN-CALCITONIN CHIMERIC PEPTIDES CONJUGATED TO DURATION ENHANCING MOIETIES” (AMYLIN PHARMACEUTICALS, LLC, priority 2011, published 2014)
